Experimental data: PMC2364987 (Metal-Based Drugs, 1995)

Tests used:
human CA I = target: T1, human CA I (Homo sapiens, UniProt P00915); test: CA I inhibition, CO2 hydration, Maren's micromethod (E-I technique); type: biochemical; conditions: 0C, veronal buffer, calculated as for the monomer for complexes
T1 construct: purchased Sigma Chemical Co
Text: (§1) Introduction Sulfonamide inhibitors of the zinc enzyme carbonic anhydrase (CA, EC 4.2.1.1) are widely used pharmacological agents in the treatment of a variety of disorders. […] 3,11 As we are also interested in exploring the coordination chemistry of sulfonamide CA inhibitors, in addition to their pharmacological applications, 1,4,11 a study is reported here on the preparation and characterization of metal complexes containing 4 and divalent metal ions such as Co(II), Ni(II), Cu(II), Zn(II), and Cd(II). In fact 4 is the first disulfonamide for which such a study was done. Here we report the data on these new derivatives, as well as their inhibition properties against two isozymes, CA I and CA II. Mention should be made that CA I inhibition data for the parent ligand, 1,3,4-thiadiazole-2,5- disulfonamide are published here for the first time. Materials and Methods Melting points were recorded on a heating plate microscope and are not corrected. FTIR spectra were obtained on thin films of pure compound, with a Perkin Elmer 1600 instrument, in the range 200 4000 cm"1. Electronic spectra were obtained by the diffuse reflectance technique in MgO as reference, with a Perkin Elmer Lambda 17 apparatus. Conductimetric measurements were done in DMF solutions, at 25C (concentrations of 1 mM of complex) with a Fisher conductimeter. 1n- and 13C-NMR data were obtained in DMSO-d as solvent with a Varian Gemmini 300 spectrometer. Chemical shifts are expressed as values relative to tetramethylsilane as internal standard. […] Thermogravimetric measurements were done in air, at a heating rate of 10C/min., with a Perkin Elmer 3600 thermobalance. Sulfonamide 4 used in the syntheses was prepared as described earlier by us.11 Metal salts, organic reagents used for preparing the ligand 4 and solvents were from Aldrich and were used without additional purification. Bovine CA II and human CA I was from Sigma Chemical Co. Inhibitors were assayed by […] micromethod 12, in the conditions of the E-I (enzyme-inhibitor) technique, at 0C in veronal buffer. IC0 values represent the molarity of inhibitor producing a 50% decrease of CA specific activity for the CO2 hydration reaction. […] The precipitated complexes were filtered and air dried. […] According to our method 6a the coordination compounds of sulfonamides were prepared starting from the sodium salt of the ligand, in aqueous milieu, whereas according to Borras' group they were obtained in the presence of ammonia (or other amines, such as pyridine, ethylenediamine, imidazole, etc), in alcohol as solvent.14 In such cases, the amines are also coordinated to the metal ions, in addition to the sulfonamide ligands. In the present study, we prepared and characterized both types ofderivatives, working with the sodium salt of4, but also with the ligand in the presence of ammonia, in both cases in a 1:1 molar ratio ligand:metal salt. […] Table I: Complexes 5-14 prepared and their elemental analysis data (S stands for the doubly deprotonated species of sulfonamide 4). […] Table II: Spectroscopic, magnetic and conductimetric data for complexes 5-10 as compared to ligands 4. Comp. IR.

Bovine CA II = target: T2, Bovine CA II (Bos taurus, UniProt P00921); test: CA II inhibition, CO2 hydration, Maren's micromethod (E-I technique); type: biochemical; conditions: 0C, veronal buffer, calculated as for the monomer for complexes
T2 construct: purchased Sigma Chemical Co
Text: as §1

T2 sequence (P00921 whole entry): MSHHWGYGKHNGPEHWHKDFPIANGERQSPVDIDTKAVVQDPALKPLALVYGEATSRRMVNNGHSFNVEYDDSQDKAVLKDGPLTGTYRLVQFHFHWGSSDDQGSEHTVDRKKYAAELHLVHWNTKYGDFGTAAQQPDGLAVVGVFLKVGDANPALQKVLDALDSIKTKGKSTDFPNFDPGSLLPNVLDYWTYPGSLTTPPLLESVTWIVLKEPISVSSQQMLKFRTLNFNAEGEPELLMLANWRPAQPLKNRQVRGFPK
T1 sequence (P00915 whole entry): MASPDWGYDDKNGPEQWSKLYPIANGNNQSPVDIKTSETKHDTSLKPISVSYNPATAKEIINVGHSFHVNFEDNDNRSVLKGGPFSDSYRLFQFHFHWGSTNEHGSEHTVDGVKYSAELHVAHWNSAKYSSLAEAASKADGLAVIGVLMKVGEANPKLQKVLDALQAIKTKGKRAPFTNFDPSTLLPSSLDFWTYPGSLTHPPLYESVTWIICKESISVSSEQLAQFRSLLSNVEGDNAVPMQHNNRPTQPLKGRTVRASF

Row | Substance | IC50 (human CA I) [nM] | IC50 (Bovine CA II) [nM]
1 | [CdS(NH3)2]o [Compound 14] | 185 | 19
2 | [CdS(OH2)2] [Compound 9] | 180 | 17
3 | [CoS(NH3)2]n [Compound 10] | 360 | 42
4 | [CuS(NH3)2] [Compound 12] | 185 | 27
5 | [CuS(OH2)2]n [Compound 7] | 175 | 24
6 | [NiS(NH3)2], [Compound 11] | 440 | 41
7 | [NiS(OH2)2]n [Compound 6] | 390 | 45
8 | [ZnS(NH3)2] [Compound 13] | 205 | 22
9 | [ZnS] [Compound 8] | 210 | 28
